The results in this text go back to article PMC6981637, “Tetrahydroquinoline-Isoxazole/Isoxazoline Hybrid Compounds as Potential Cholinesterases Inhibitors: Synthesis, Enzyme Inhibition Assays, and Molecular Modeling Studies” (International Journal of Molecular Sciences, 2019).

Several values for one entry are separate records, joined by “and”; a condition that tells them apart may be missing. Equal entries are not always repeated. Where two headings read alike, the source gives them in different places. Bounds are passed on as bounds.

The target of assay [1] is AChE (from Electrophorus electricus) (Electrophorus electricus, UniProt O42275).
Another assay has as its target T1, BChE (from bovine serum) (Bos taurus, UniProt P32749).
T1 construct: purchased Sigma-Aldrich
In words: BChE inhibitory activity (Ellman method). The settings on record: for IC50: average from three independent experiments ± SEM; for selectivity against BChE: conclusions. In kind it is biochemical. (In Ellman's method for cholinesterases, released thiocholine reacts with DTNB.)

The mark [2] stands for this setting: Table 1, THQ–isoxazoline hybrids 5, read-out: IC50 BChE.
[3] abbreviates: Table 2, THQ–isoxazole hybrids 6, read-out: BChE (IC50).

T1 sequence (P32749 29-602): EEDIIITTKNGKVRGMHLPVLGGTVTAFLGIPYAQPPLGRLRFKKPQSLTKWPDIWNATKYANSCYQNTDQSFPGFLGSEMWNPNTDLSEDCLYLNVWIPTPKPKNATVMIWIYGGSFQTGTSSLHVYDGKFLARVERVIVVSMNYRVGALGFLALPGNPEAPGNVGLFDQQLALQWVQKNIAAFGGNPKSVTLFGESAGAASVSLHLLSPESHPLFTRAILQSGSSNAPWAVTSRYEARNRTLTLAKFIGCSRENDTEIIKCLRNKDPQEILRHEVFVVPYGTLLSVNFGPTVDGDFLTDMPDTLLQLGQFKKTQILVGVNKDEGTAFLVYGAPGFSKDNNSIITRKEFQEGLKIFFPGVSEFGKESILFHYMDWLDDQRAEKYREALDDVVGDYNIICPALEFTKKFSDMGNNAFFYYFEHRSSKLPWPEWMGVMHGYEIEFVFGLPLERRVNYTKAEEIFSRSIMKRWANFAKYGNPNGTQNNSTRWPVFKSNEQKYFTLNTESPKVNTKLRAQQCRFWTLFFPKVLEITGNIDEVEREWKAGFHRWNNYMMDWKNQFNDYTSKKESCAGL
AChE (from Electrophorus electricus), sequence (O42275 24-633): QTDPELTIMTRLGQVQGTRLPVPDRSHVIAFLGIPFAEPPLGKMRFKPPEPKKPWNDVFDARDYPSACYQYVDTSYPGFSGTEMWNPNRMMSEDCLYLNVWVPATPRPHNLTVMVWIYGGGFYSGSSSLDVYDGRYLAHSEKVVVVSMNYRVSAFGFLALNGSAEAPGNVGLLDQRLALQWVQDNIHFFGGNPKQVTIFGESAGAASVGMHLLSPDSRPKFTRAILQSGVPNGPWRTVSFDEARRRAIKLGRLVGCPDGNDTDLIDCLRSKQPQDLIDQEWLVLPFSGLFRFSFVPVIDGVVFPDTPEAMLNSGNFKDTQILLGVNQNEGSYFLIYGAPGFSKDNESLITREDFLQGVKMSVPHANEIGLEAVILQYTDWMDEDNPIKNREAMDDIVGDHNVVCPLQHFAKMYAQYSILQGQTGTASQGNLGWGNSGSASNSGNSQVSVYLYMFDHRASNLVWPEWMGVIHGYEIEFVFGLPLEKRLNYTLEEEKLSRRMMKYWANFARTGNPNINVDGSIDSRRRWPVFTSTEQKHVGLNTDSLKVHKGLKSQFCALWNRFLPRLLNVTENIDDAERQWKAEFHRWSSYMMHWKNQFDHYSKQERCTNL

In general, IC50 refers to the midpoint of a concentration-inhibition curve. In assay [1], `O=C1CCCN1C1CCN(CC2CC(c3ccccc3)=NO2)c2ccccc21` (stereo not shown) [5a, 3-phenyl-5-[(4-(2′-oxopyrrolidin-1′-yl)-3,4-dihydroquinolin-1(2H)-yl)-methyl]-4,5 dihydroisoxazole] showed an SI of 1.06. Besides, the IC50 in assay [1] (read-out: IC50 AChE) was determined as 77.37 ± 0.01 µM; on BChE (from bovine serum) (setting [2]), 81.9 ± 0.04 µM.

As to `COc1ccc(C2=NOC(CN3CCC(N4CCCC4=O)c4ccccc43)C2)cc1` (stereo not shown) [5b, 3-(4-methoxyphenyl)-5-[4-((2′-oxopyrrolidin-1′-yl)-3,4-dihydroquinolin-1(2H)-yl)-methyl]-4,5-dihydroisoxazole], the SI in assay [1] is recorded as 0.69. The values for the IC50 (in assay [1] (read-out: IC50 AChE); at BChE (from bovine serum) (setting [2])) were 95.14 ± 0.08 µM and 65.59 ± 0.006 µM, respectively.

Turning to `COc1ccc(C2=NOC(CN3CCC(N4CCCC4=O)c4ccccc43)C2)cc1OC` (stereo not shown) [5c, 3-(3,4-dimethoxyphenyl)-5-[4-((2′-oxopyrrolidin-1′-yl)-3,4-dihydroquinolin-1(2H)-yl)-methyl]-4,5-dihydroisoxazole], the IC50 in assay [1] (read-out: IC50 AChE) was 100.65 ± 0.05 µM.

Compound `COc1cc(C2=NOC(CN3CCC(N4CCCC4=O)c4ccccc43)C2)cc(OC)c1OC` (stereo not shown) [5d, 3-(3,4,5-trimethoxyphenyl)-5-[4-((2′-oxopyrrolidin-1′-yl)-3,4-dihydroquinolin-1(2H)-yl)-methyl]-4,5-dihydroisoxazole] returned an SI in assay [1] of 0.27. In addition, the IC50 in assay [1] (read-out: IC50 AChE) worked out at 49.82 ± 0.03 µM; on BChE (from bovine serum) (setting [2]) it was 13.66 ± 0.01 µM.

The compound `Cc1ccc2c(c1)C(N1CCCC1=O)CCN2CC1CC(c2ccccc2)=NO1` (stereo not shown) [5e, 5-[(6-methyl-4-(2′-oxopyrrolidin-1′-yl)-3,4-dihydroquinolin-1(2H)-yl)-methyl]-3-phenyl-4,5-dihydroisoxazole] had an SI in assay [1] of 0.17. Besides, the IC50 turned out to be 189.1 ± 0.01 µM in assay [1] (read-out: IC50 AChE) and 31.4 ± 0.01 µM at BChE (from bovine serum) (setting [2]).

The compound `COc1ccc(C2=NOC(CN3CCC(N4CCCC4=O)c4cc(C)ccc43)C2)cc1` (stereo not shown) [5f, 3-(4-methoxyphenyl)-5-[(6-methyl-4-(2′-oxopyrrolidin-1′-yl)-3,4-dihydroquinolin-1(2H)-yl)-methyl]-4,5-dihydroisoxazole] gave an SI in assay [1] of 1.43. Also, the IC50 in assay [1] (read-out: IC50 AChE) was found to be 16.31 ± 0.01 µM; on BChE (from bovine serum) (setting [2]) it was 23.36 ± 0.005 µM.

In the case of `COc1ccc(C2=NOC(CN3CCC(N4CCCC4=O)c4cc(C)ccc43)C2)cc1OC` (stereo not shown) [5g, 3-(3,4-dimethoxyphenyl)-5-[(6-methyl-4-(2′-oxopyrrolidin-1′-yl)-3,4-dihydroquinolin-1(2H)-yl)-methyl]-4,5-dihydroisoxazole], the SI in assay [1] is listed as 0.32. Further, the IC50 in assay [1] (read-out: IC50 AChE) is 99.71 ± 0.01 µM; at BChE (from bovine serum) (setting [2]), 31.49 ± 0.005 µM.

The compound `COc1cc(C2=NOC(CN3CCC(N4CCCC4=O)c4cc(C)ccc43)C2)cc(OC)c1OC` (stereo not shown) [5h, 5-[(6-methyl-4-(2′-oxopyrrolidin-1′-yl)-3,4-dihydroquinolin-1(2H)-yl)-methyl]-3-(3,4,5-trimethoxyphenyl)-4,5-dihydroisoxazole] came in with an SI in assay [1] of 1.70. Further, the concentration for half-maximal inhibition (IC50) in assay [1] (read-out: IC50 AChE) amounted to 37.41 ± 0.03 µM; on BChE (from bovine serum) (setting [2]) it was 63.72 ± 0.001 µM.

Compound `COc1ccc2c(c1)C(N1CCCC1=O)CCN2CC1CC(c2ccccc2)=NO1` (stereo not shown) [5i, 5-[(6-methoxy-4-(2′-oxopyrrolidin-1′-yl)-3,4-dihydroquinolin-1(2H)-yl)-methyl]-3-phenyl-4,5-dihydroisoxazole] returned an SI in assay [1] of 1.79. Also, the values for the IC50 (in assay [1] (read-out: IC50 AChE); on BChE (from bovine serum) (setting [2])) were 82.04 ± 0.11 µM and 146.37 ± 0.03 µM, respectively.

`COc1ccc(C2=NOC(CN3CCC(N4CCCC4=O)c4cc(OC)ccc43)C2)cc1` (stereo not shown) [5j, 3-(4-methoxyphenyl)-5-[(6-methoxy-4-(2′-oxopyrrolidin-1′-yl)-3,4-dihydroquinolin-1(2H)-yl)-methyl]-4,5-dihydroisoxazole] registered an SI in assay [1] of 1.55. Further, the figures for the IC50 (in assay [1] (read-out: IC50 AChE); on BChE (from bovine serum) (setting [2])) were 93.66 ± 0.006 µM and 144.71 ± 0.004 µM, respectively.

With `COc1ccc2c(c1)C(N1CCCC1=O)CCN2CC1CC(c2ccc(OC)c(OC)c2)=NO1` (stereo not shown) [5k, 3-(3,4-dimethoxyphenyl)-5-[(6-methoxy-4-(2′-oxopyrrolidin-1′-yl)-3,4-dihydroquinolin-1(2H)-yl)-methyl]-4,5-dihydroisoxazole], in assay [1], the SI is 16.8 and the “selectivity for inhibiting AChE” value is listed as “significant selectivity”. Also, the IC50 in assay [1] (read-out: IC50 AChE) was determined as 15.26 ± 0.02 µM. For the same compound, the IC50 on BChE (from bovine serum) (setting [2]) is 255.82 ± 0.01 µM.

`COc1ccc2c(c1)C(N1CCCC1=O)CCN2CC1CC(c2cc(OC)c(OC)c(OC)c2)=NO1` (stereo not shown) [5l, 5-[(6-methoxy-4-(2′-oxopyrrolidin-1′-yl)-3,4-dihydroquinolin-1(2H)-yl)-methyl]-3-(3,4,5-trimethoxyphenyl)-4,5-dihydroisoxazole]: the SI in assay [1] is recorded as 0.40. In addition, the IC50 in assay [1] (read-out: IC50 AChE) is 109.26 ± 0.01 µM; on BChE (from bovine serum) (setting [2]) it was 43.67 ± 0.02 µM.

Turning to `O=C1CCCN1C1CCN(CC2CC(c3ccccc3)=NO2)c2ccc(Cl)cc21` (stereo not shown) [5m, 5-[(6-chloro-4-(2′-oxopyrrolidin-1′-yl)-3,4-dihydroquinolin-1(2H)-yl)-methyl]-3-phenyl-4,5-dihydroisoxazole], in assay [1], the SI came out at 0.63 and the “selectivity for inhibiting AChE” value is “significant selectivity”. For the same compound, the half-maximal inhibitory concentration (IC50) in assay [1] (read-out: IC50 AChE) worked out at 30.1 ± 0.01 µM. The IC50 on BChE (from bovine serum) (setting [2]) came out at 19.09 ± 0.01 µM.

As to `COc1ccc(C2=NOC(CN3CCC(N4CCCC4=O)c4cc(Cl)ccc43)C2)cc1` (stereo not shown) [5n, 5-[(6-chloro-4-(2′-oxopyrrolidin-1′-yl)-3,4-dihydroquinolin-1(2H)-yl)-methyl]-3-(4-methoxyphenyl)-4,5-dihydroisoxazole], in assay [1], the SI was found to be 5.19 and the “selectivity for inhibiting AChE” value is recorded as “significant selectivity”. Also, the IC50 on BChE (from bovine serum) (setting [2]) came to 22 ± 0.02 µM.

In assay [1], `COc1ccc(C2=NOC(CN3CCC(N4CCCC4=O)c4cc(Cl)ccc43)C2)cc1OC` (stereo not shown) [5o, 3-(4,5-dimethoxyphenyl)-5-[(6-chloro-4-(2′-oxopyrrolidin-1′-yl)-3,4-dihydroquinolin-1(2H)-yl)-methyl]-4,5-dihydroisoxazole] had an SI of 6.35. Moreover, in assay [1], the “selectivity for inhibiting AChE” value is “significant selectivity”. The IC50 in assay [1] (read-out: IC50 AChE) was found to be 13.17 ± 0.02 µM; on BChE (from bovine serum) (setting [2]), 83.65 ± 0.01 µM.

On to `COc1cc(C2=NOC(CN3CCC(N4CCCC4=O)c4cc(Cl)ccc43)C2)cc(OC)c1OC` (stereo not shown) [5p, 5-[(6-chloro-4-(2′-oxopyrrolidin-1′-yl)-3,4-dihydroquinolin-1(2H)-yl)-methyl]-3-(3,4,5-trimethoxyphenyl)-4,5-dihydroisoxazole], for which, in assay [1], the SI is listed as 8.61. Besides, the results for the IC50 (in assay [1] (read-out: IC50 AChE); on BChE (from bovine serum) (setting [2])) were 12.28 ± 0.01 µM and 106 ± 2 µM, respectively.

In turn, `O=C1CCCN1C1CCN(Cc2cc(-c3ccccc3)no2)c2ccccc21` (stereo not shown) [6a, 3-phenyl-5-((4′-(2′’-oxopyrrolidin-1′’-yl)-3′,4′-dihydroquinolin-1′(2′H)-yl)methyl)isoxazole] gave an SI in assay [1] of 0.04. Moreover, the IC50 in assay [1] (read-out: AChE (IC50)) was 104.74 ± 0.01 µM; at BChE (from bovine serum) (setting [3]), < 7.18 µM and 4.36 µM. For the same compound, the “selectivity against BChE” value on BChE (from bovine serum) is “more selective”.

In assay [1], `COc1ccc(-c2cc(CN3CCC(N4CCCC4=O)c4cc(Br)ccc43)on2)cc1OC` (stereo not shown) [6aa, 3-(3,4-dimethoxyphenyl)-5-((6′-bromo-4′-(2′’-oxopyrrolidin-1′’-yl)-3′,4′-dihydroquinolin-1′(2′H)-yl)methyl)isoxazole] came in with an SI of 0.04. In addition, the IC50 in assay [1] (read-out: AChE (IC50)) was 96.1 ± 0.01 µM; on BChE (from bovine serum) (setting [3]) it was < 7.18 µM and 3.97 µM. The “selectivity against BChE” value on BChE (from bovine serum) is reported as “more selective”. In addition, the “times more potent against BChE than for the AChE enzyme” value on BChE (from bovine serum) (selectivity for BChE) is reported as “about 24 times”.

In assay [1], `COc1cc(-c2cc(CN3CCC(N4CCCC4=O)c4cc(Br)ccc43)on2)cc(OC)c1OC` (stereo not shown) [6ab, 5-((6′-bromo-4′-(2′’-oxopyrrolidin-1′’-yl)-3′,4′-dihydroquinolin-1′(2′H)-yl)methyl)-3-(3,4,5-trimethoxyphenyl)isoxazole] displayed an SI of 0.36. The IC50 in assay [1] (read-out: AChE (IC50)) came to 148.31 ± 0.004 µM; on BChE (from bovine serum) (setting [3]), 54.09 ± 0.01 µM.

`COc1ccc(-c2cc(CN3CCC(N4CCCC4=O)c4ccccc43)on2)cc1` (stereo not shown) [6b, 3-(4-methoxyphenyl)-5-((4′-(2′’-oxopyrrolidin-1′’-yl)-3′,4′-dihydroquinolin-1′(2′H)-yl)methyl)isoxazole] came in with an SI in assay [1] of 0.64. In addition, the IC50 in assay [1] (read-out: AChE (IC50)) was found to be 42.44 ± 0.01 µM; at BChE (from bovine serum) (setting [3]) it was 27.25 ± 0.003 µM.

With `COc1cc(-c2cc(CN3CCC(N4CCCC4=O)c4ccccc43)on2)cc(OC)c1OC` (stereo not shown) [6c, 3-(3,4,5-trimethoxyphenyl)-5-((4′-(2′’-oxopyrrolidin-1′’-yl)-3′,4′-dihydroquinolin-1′(2′H)-yl)methyl)isoxazole], the SI in assay [1] is reported as 2.17. Further, the results for the IC50 (in assay [1] (read-out: AChE (IC50)); at BChE (from bovine serum) (setting [3])) were 22.07 ± 0.01 µM and 47.96 ± 0.01 µM, respectively.

With `Cc1ccc2c(c1)C(N1CCCC1=O)CCN2Cc1cc(-c2ccccc2)no1` (stereo not shown) [6d, 5-((6′-methyl-4′-(2′’-oxopyrrolidin-1′’-yl)-3′,4′-dihydroquinolin-1′(2′H)-yl)methyl)-3-phenylisoxazole], the SI in assay [1] was found to be 0.49. Moreover, the half-maximal inhibitory concentration (IC50) is 37.84 ± 0.01 µM in assay [1] (read-out: AChE (IC50)) and 18.51 ± 0.01 µM at BChE (from bovine serum) (setting [3]).

Compound `COc1ccc(-c2cc(CN3CCC(N4CCCC4=O)c4cc(C)ccc43)on2)cc1` (stereo not shown) [6e, 3-(4-methoxyphenyl)-5-((6′-methyl-4′-(2′’-oxopyrrolidin-1′’-yl)-3′,4′-dihydroquinolin-1′(2′H)-yl)methyl)isoxazole] came in with an SI in assay [1] of 2.62. The IC50 in assay [1] (read-out: AChE (IC50)) is 30.43 ± 0.02 µM; at BChE (from bovine serum) (setting [3]), 79.81 ± 0.06 µM.

Turning to `COc1ccc(-c2cc(CN3CCC(N4CCCC4=O)c4cc(C)cc(Cl)c43)on2)cc1OC` (stereo not shown) [6f, 5-((8′-chloro-6′-methyl-4′-(2′’-oxopyrrolidin-1′’-yl)-3′,4′-dihydroquinolin-1′(2′H)-yl)methyl)-3-(3,4-dimethoxyphenyl)isoxazole], the SI in assay [1] is reported as 6.76. For the same compound, the IC50 turned out to be 54.71 ± 0.02 µM in assay [1] (read-out: AChE (IC50)) and 370.12 ± 0.03 µM on BChE (from bovine serum) (setting [3]).

`CCc1ccc2c(c1)C(N1CCCC1=O)CCN2Cc1cc(-c2cc(OC)c(OC)c(OC)c2)no1` (stereo not shown) [6t, 5-((6′-ethyl-4′-(2′’-oxopyrrolidin-1′’-yl)-3′,4′-dihydroquinolin-1′(2′H)-yl)methyl)-3-(3,4,5-trimethoxyphenyl)isoxazole]: in assay [1] (read-out: AChE (IC50)), the IC50 came to 66.77 ± 0.01 µM.

As for `COc1ccc2c3c1O[C@H]1C[C@@H](O)C=C[C@@]31CCN(C)C2` [Galantamine, galantamine, reference compound], the IC50 at BChE (from bovine serum) (setting [2]) and on BChE (from bovine serum) (setting [3]) was 8.8 ± 0.5 µM in each case.
